Assay results taken from US8178506B2, “Oligomeric compounds and compositions for use in modulation of small non-coding RNAs” (Regulus Therapeutics Inc., priority 2003, dated 2012).
In the oligonucleotide strings, read from the 5' end, every base follows the letter of its sugar. An asterisk marks phosphorothioate; unmarked linkages are phosphodiester. Other units and linkages are bracketed, terminal groups are in braces. A string of capitals states the bases alone. e = 2'-O-(2-methoxyethyl) (MOE); [5mC] = 5-methylcytosine

Columns and labels:
mir-21 pri-miRNA = mir-21 pri-miRNA expression in HeLa cells (real-time RT-PCR); type: cell-based, human; conditions: HeLa cells, 100 nM, real-time RT-PCR
mir-143 pri-miRNA = mir-143 pri-miRNA levels in differentiating adipocytes (real-time RT-PCR); type: cell-based, human; conditions: differentiated adipocytes 9 days vs 3 days post-differentiation
Method: Here, oligomeric compounds targeting mir-143 were transfected into preadipocytes which were then induced to differentiate, in order to assess the effects of these compounds on mir-143 pri-miRNA levels during differentiation. mir-143 pri-miRNA levels were assessed on days 3 and 9 after differentiation.
In addition to the uniform 2′-MOE phosphorothioate oligomeric compound ISIS Number 327901 (SEQ ID NO: 319) targeting mature mir-143, a 5-10-7 gapmer oligomeric compound, ISIS Number 340927 (SEQ ID NO: 319), was designed to target mature mir-143. […] ISIS 342672 and ISIS 342673 are uniform 2′-MOE phosphorothioate oligomeric compounds 22 nucleotides in length. ISIS Number 342677 (SEQ ID NO: 789) and ISIS Number 342678 (SEQ ID NO: 758) are the corresponding 5-10-7 scrambled 2′-MOE gapmer oligomeric compounds. All cytidine residues are 5-methylcytidines. […]
These compounds were transfected into differentiating adipocytes and their effects on levels of the mir-143 pri-miRNA molecule were assessed in pre-adipocytes vs. differentiated adipocytes, by real-time RT-PCR using the primer/probe set specific for the mir-143 pri-miRNA (forward primer=ISIS 339314, SEQ ID NO: 786; reverse primer=ISIS 342897, SEQ ID NO.: 787; probe=ISIS 342898, SEQ ID NO.: 788). […]

Substance | mir-21 pri-miRNA expression % UTC (mir-21 pri-miRNA) [% UTC] | levels of the mir-143 pri-miRNA (mir-143 pri-miRNA)
327917 (antisense eT*e[5mC]*eA*eA*e[5mC]*eA*eT*e[5mC]*eA*eG*eT*e[5mC]*eT*eG*eA*eT*eA*eA*eG*e[5mC]*eT*eA) [compound 327917] | 249 | 
TGAGCTACAGTGCTTCATCTCA [ISIS 327901] (chemistry not given here) [uniform 2′-MOE PS; targets mir-143] |  | approximately 4 fold
